From patent US10239918B2, “Cahuitamycins and methods of making and using the same” (THE REGENTS OF THE UNIVERSITY OF MICHIGAN, priority 2015, dated 2019)
Like-named read-outs stand apart in the source and are kept apart here. Values belong to the molecule of their own block, whether it stands above or below them.

Key:
A. baumanii biofilm = test: confocal microscope imaging of biofilm on glass plate (SYTO 9 / propidium iodide); format: cell-based, Acinetobacter baumannii; settings: glass plate treated with 240 nM
Protocol: (§1) Next, the specific stage of inhibition during biofilm formation was probed as well as the extent of inhibition through a flow cell assay. […] In addition, confocal microscope imaging analysis of the A. baumanii biofilm was conducted. In this assay, the biofilm was developed on a glass plate and left untreated as a control or treated with only 240 nM of 1 and 3. After treatment with STYO® 9 stain and propidium iodide (PI) the biofilm structure was observed.

[1] = competition titrations with EDTA to determine iron-binding affinity (pFeIII); format: physicochemical; settings: competition titration of Fe-cahuitamycin complex with EDTA, Hepes buffer pH 7.4, UV-vis; three individual titrations
Protocol: Determination of pFe^III for cahuitamycins was carried out as reported by Abergel et al. J. Am. […] Briefly, purified Fe-cahuitamycins, prepared as described above, was dissolved in Hepes buffer (10 mM Hepes, 0.1 M KCl, pH 7.4) and five different concentration ranges of ETDA were added from EDTA stock solutions also prepared in HEPES buffer. Each reaction consisted of a total volume of 0.25 mL, a final concentration of 0.1 mM Fe-cahuitamycins and a range of 5-fold-8000-fold EDTA (relative to Fe-cahuitamycins) in Hepes buffer. The reaction was allowed to equilibrate at room temperature for at least 24 h, and UV-visible spectra were subsequently recorded. The composite spectra contain contributions from both Fe-EDTA and Fe-cahuitamycins. The ε of both species as a function of λ, were determined in Hepes buffer and used to deconvolute the spectra. The contribution of Fe-cahuitamycins was subtracted from the composite spectra using the 435 nm absorption band and the ε of both Fe-cahuitamycins and Fe-EDTA were used to quantify the proportion of each species in solution. Concentrations of apo-EDTA and apo-cahuitamycins were calculated by subtracting [Fe-EDTA] (or [Fe-cahuitamycins]) from total initial EDTA (or Fe cahuitamycins). The log [EDTA]/[cahuitamycins] was plotted against log [Fe-EDTA]/[Fe-cahuitamycins] and the data were fit to the following equation, which has been derived by Abergel et al., J. Am.

A. baumannii growth = test: inhibition of A. baumannii growth; format: cell-based, Acinetobacter baumannii; settings: for effect on bacterial growth: A. baumannii, apo form
[2] = test system: A. baumannii biofilm formation; test: static biofilm assay, crystal violet staining and optical density; format: cell-based, Acinetobacter baumannii ATCC 17978; settings: for IC50: Acinetobacter baumannii, read-out: IC50, inhibition of biofilm formation; for effect on biofilm formation: apo form
Excerpt: In an effort to discover new antibiotics, a marine microbial-derived NPE library was screened to identify biofilm inhibitors in A. baumannii. Natural products accounts for the majority of currently marketed drugs,^10 and the marine environment represents a potential new source of unique chemical entities.^11 A crystal violet based high throughput assay was used to query against a library of 9,831 marine microbial derived NPEs in order to identify the extracts inhibiting biofilm formation as primary screen. The active extracts obtained in primary high-throughput screening were further prioritized by setting the inhibition threshold to 50% followed by a dose response assay, yielding 31 active NPEs.
Primarily, the static biofilm assay using 1-3 was conducted using crystal violet staining followed by optical density measurements (FIG. 3). […] However, loss of inhibition of biofilm over time can be directly attributed to the metal-complexed cahuitamycins.
A static biofilm assay was developed from a previously reported method.^10 The biofilm assay measures the adhesion of bacteria to the surface of polystyrene 384 well microtiter plates. Adherent cells are detected by staining with Crystal Violet and subsequent washing to remove nonadherent planktonic cells. Inhibitors of biofilm formation prevent the bacteria from adhering to the surface of the microtiter plate and reduce the amount of Crystal Violet retained after washing. Assay quantification was performed by OD600 absorbance measurement of the Crystal Violet stained biofilm. The assay was optimized for plate surface treatment, time, temperature, media, media concentration, Crystal Violet concentration, wash method, inhibitor sensitivity, and culture inoculum preparation.
The A. baumannii test strain (ATCC 17978) was maintained as a frozen stock at −80° C. in 20% glycerol. On the morning of the assay, 5 ml of Mueller Hinton II cation adjusted media (Becton Dickinson cat. 212322) was inoculated and grown at 37° C., 180 rpm shaking for 4-6 h. The culture was then diluted 1:50 and incubated an additional 2 h. The resulting cells were washed four times by centrifugation and resuspension of the pellet in media was performed to remove any metabolites or cell signaling factors. The assay inoculum was prepared by diluting the cells to 0.008 OD600 in 10% Mueller Hinton II cation adjusted media (diluted in 18 ohm deionized water). The assay plates (Corning cat. 3680, 384 well non-treated polystyrene) were prepared by dispensing 20 μl of 10% Mueller Hinton II cation adjusted media into columns 1-22 using a Multidrop Combi dispenser (ThermoFisher). The natural product extract samples were added as 0.2 μl of 15 mg/ml stocks in DMSO using a Biomek FX high density pintool (Beckman Coulter). Column 1 and 2 contained DMSO without natural product extracts and served as the negative control. The positive control was added to column 23 and 24 as 20 μl of 40 μM Baicalein (Sigma-Aldrich cat. 11712). The bacterial cells were added to the entire plate in 20 μl of the prepared inoculum using a Multidrop Combi dispenser (ThermoFisher). The resulting assay contained 40 μl of 10% Mueller Hinton II cation adjusted media with 0.004 OD600 bacterial cells, 0.5% DMSO, and 75 μg/ml natural product extract. The assay plates were incubated at 30° C. for 20 h, stationary, in a humidified incubator. The biofilm was stained by adding 10 μl of filtered 1% Crystal Violet and incubating for 30 minutes at room temperature. Excess Crystal Violet and nonadherent planktonic cells were removed by washing three times with 150 μl of PBS using an ELX405 plate washer (Biotek). The wash program used a low velocity dispense rate and an aspiration height of 3.8 mm; about 10 μl of PBS remained in the well after washing. The Crystal Violet stained biofilm was solubilized by the addition of 50 μl of 100% ethanol and allowed to develop overnight. Quantification was performed by measuring the OD600 absorbance using a Pherastar plate reader (BMG). […]

[3] = test system: A. baumannii ATCC 17978 biofilm; test: flow cell biofilm assay; format: cell-based, Acinetobacter baumannii ATCC 17978; settings: 7.5 μg/ml in flow media
Protocol: as §1
Biofilms were formed by A. baumannii ATCC 17978 in flow chambers at room temperature. Images were taken at 1 h, 6 h and 24 h (by using a 60× lens) after inoculation. A flow cell biofilm was achieved by using a flow cell chamber (ACCFL0001, Life Science Incorporated, Greensboro, N.C.). Briefly, overnight cultures of A. baumannii ATCC 17978 grown in MHII broth at 37° C. were diluted 100 fold with fresh MHII broth. 1 ml of dilution was injected into a flow cell chamber and allowed to settle one hour for attaching of bacteria followed by initiation media flow. Flow media was 10% MHII broth (control), or 10% MHII broth with 7.5 μg/ml of desferoxamine, or MHII broth with 7.5 μg/ml of cahuitamycins A. The flow rate was 4 ml/hr. Micrographs of the biofilm were acquired at 1 h, 6 h and 24 h by using an Olympus IX70 microscope with 60× lens

[4] = reference value used for the calculation; cited from earlier work
[5] = static biofilm assay, A. baumannii
[6] = compound tested in iron-complexed form

Compound: Cc1cccc(O)c1C1=N[C@H](C(=O)N[C@@H](CO)C(=O)N[C@H](CCCN(O)C=O)C(=O)N2NCCC[C@@H]2C(=O)NCCC(=O)O)CO1 [compound 3, Cahuitamycin C]
- biofilm thickness compared with the control (A. baumanii biofilm): much thinner biofilm
- total biomass compared with the control (A. baumanii biofilm): significantly less total biomass
- total biomass of biofilm (A. baumanii biofilm): 0.10 μm^3
- pFe^III [1]: 17.52±0.12
- effect on bacterial growth (A. baumannii growth): limited effect
- IC50 [2, 5]: 14.5 µM

- IC50 [2, 5]: 8.4 µM
Compound: Cc1ccc(O)c(C2=N[C@H](C(=O)N[C@@H](CO)C(=O)N[C@H](CCCN(O)C=O)C(=O)N3NCCC[C@@H]3C(=O)NCCC(=O)O)CO2)c1 [compound 4, Cahuitamycin D]
- potency as biofilm inhibitor compared to 3 (cahuitamycin C) ([2]; static biofilm assay): almost twice the potency
- potency as biofilm inhibitor compared to 3 (cahuitamycin C) ([2]; static biofilm assay, listed as cahuitamycin analog D): twice as active

Compound: O=CN(O)CCC[C@@H](NC(=O)[C@H](CO)NC(=O)[C@@H]1COC(c2ccccc2O)=N1)C(=O)N1NCCC[C@@H]1C(=O)NCCC(=O)O [compound 1, Cahuitamycin A]
- biofilm state in flow cell after 6 h of supplementation [3]: only a few micro colonies
- biofilm state in flow cell after 24 h of supplementation [3]: larger micro colonies and initiation of biofilm formation
- biofilm thickness compared with the control (A. baumanii biofilm): much thinner biofilm
- total biomass compared with the control (A. baumanii biofilm): significantly less total biomass
- total biomass of biofilm (A. baumanii biofilm): 0.18 μm^3
- pFe^III [1]: 18.34±0.16
- impact on growth, iron-complexed form (A. baumannii growth; [6]): almost no impact
- impact on biofilm formation, iron-complexed form [2, 6]: almost no impact
- effect on biofilm formation [2, 5]: able to inhibit

Compound: O=CN(O)CCC[C@@H](NC(=O)[C@H](CO)NC(=O)[C@H](CO)NC(=O)c1ccccc1O)C(=O)N1NCCC[C@@H]1C(=O)NCCC(=O)O [compound 2, Cahuitamycin B]
- pFe^III [1]: 20.42±0.09
- effect on bacterial growth (A. baumannii growth): no effects
- effect on biofilm formation [2, 5]: no effects

Compound: O=CN(O)CCC[C@@H](NC(=O)[C@H](CO)NC(=O)[C@H](CO)NC(=O)c1ccccc1O)C(=O)N[C@H](CCCNO)C(=O)NCCC(=O)O [compound 5, Cahuitamycin E]
- IC50 [2]: 10.5 µM

Compound: O=C(O)CN(CCN(CC(=O)O)CC(=O)O)CC(=O)O [EDTA]
- pFe^III (known stability constants for EDTA) [4]: 23.42

Compound: CC(=O)N(O)CCCCCNC(=O)CCC(=O)N(O)CCCCCNC(=O)CCC(=O)N(O)CCCCCN [desferoxamine, reference compound]
- biofilm state in flow cell after 6 h of supplementation [3]: formation of a robust biofilm
- biofilm state in flow cell after 24 h of supplementation [3]: biofilm became thicker
